Experimental data reported in patent publication US10669238B2, “Irreversible bruton's tyrosine kinase inhibitor” (HEFEI INSTITUTES OF PHYSICAL SCIENCE, CHINESE ACADEMY OF …, priority 2016, dated 2020).

Target: BTK protein kinase (Homo sapiens, UniProt Q06187)
Experiment: In vitro enzymatic activity against BTK (ADP-Glo)
Assay type: biochemical
Conditions: compound with BTK 4 hours at room temperature, ATP 10 μM, 37° C. 1 hour
Experimental: In vitro enzymatic activity of the compounds against BTK was determined in a experimental assay of in vitro enzymatic activity using […] kit (purchased from Progema, USA).
9 μL of BTK protein kinase (at a concentration of 1.5 ng/μL) was used to react with compounds (1 μL) shown in the following table that were diluted three times in gradient at room temperature for 4 hours (the final concentration of the compound being 10 μM, 3 μM, 1 μM, 0.3 μM, 0.1 μM, 0.03 μM, 0.01 μM, 0.003 μM);
2 μL of ATP and 3 μL of the substrate Poly(4:1 Glu, Tyr)Peptide (Promega, USA) (the final concentrations being 10 μM and 0.2 μg/μL, respectively) were added to allow reaction at 37° C. for 1 hour;
5 μL of BTK kinase solution after reaction was taken and added into 5 μL of ADP-Glo™ (Promega, USA) reagent to allow reaction at room temperature for 40 mins so as to terminate the kinase reaction and exhaust the remaining ATP;
10 μL kinase detecting reagent was added to convert ADP to ATP, and newly synthesized ATP was detected using coupled luciferase/[…] reaction, then the IC50 values were calculated by using a plotting method based on the Envision reading.

Sequence of BTK protein kinase (Q06187 whole entry): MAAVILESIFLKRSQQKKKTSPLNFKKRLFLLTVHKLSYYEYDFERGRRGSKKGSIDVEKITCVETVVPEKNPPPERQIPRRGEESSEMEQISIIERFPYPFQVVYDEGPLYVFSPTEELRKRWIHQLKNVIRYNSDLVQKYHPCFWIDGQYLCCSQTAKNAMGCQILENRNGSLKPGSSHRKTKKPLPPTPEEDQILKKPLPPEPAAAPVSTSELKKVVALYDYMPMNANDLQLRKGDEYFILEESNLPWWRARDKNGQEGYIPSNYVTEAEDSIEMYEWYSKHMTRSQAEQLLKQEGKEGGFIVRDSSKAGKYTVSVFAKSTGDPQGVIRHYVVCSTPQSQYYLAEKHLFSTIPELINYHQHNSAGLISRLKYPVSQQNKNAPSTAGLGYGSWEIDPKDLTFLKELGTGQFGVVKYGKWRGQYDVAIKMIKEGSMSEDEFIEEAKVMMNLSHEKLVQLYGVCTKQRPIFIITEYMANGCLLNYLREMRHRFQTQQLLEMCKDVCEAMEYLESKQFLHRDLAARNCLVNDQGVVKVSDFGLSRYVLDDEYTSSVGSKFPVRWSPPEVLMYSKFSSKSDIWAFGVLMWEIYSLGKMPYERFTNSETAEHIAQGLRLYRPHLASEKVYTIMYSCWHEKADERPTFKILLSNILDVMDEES

Row | Compound | IC50 (values in nM) [nM] | IC50 (values given in μM) [nM]
1 | C=CC(=O)Nc1cc(Nc2cc(-c3cccc(NC(=O)c4cccc(C(F)(F)F)c4)c3C)cn(C)c2=O)ccc1C(=O)N1CCOCC1 [Compound 57, N-(3-(5-((3-acrylamide-4-(morpholin-4-carbonyl)phenyl)amino)-1-methyl-6-oxo-1,6-dihydropyridin-3-yl)-2-methylphenyl)-3-(trifluoromethyl)benzoylamide] | > 10000 | –
2 | C=CC(=O)Nc1cc(Nc2cc(-c3cccc(NC(=O)c4ccccc4)c3C)cn(C)c2=O)ccc1C(=O)N1CCOCC1 [Compound 12, N-(3-(5-((3-acrylamide-4-(morpholin-4-carbonyl)phenyl)amino)-1-methyl-6-oxo-1,6-dihydropyridin-3-yl)-2-methylphenyl)benzoylamide] | – | 4620
3 | C=CC(=O)Nc1cc(Nc2cc(-c3cccc(NC(=O)c4ccc5c(c4)OCCO5)c3C)cn(C)c2=O)ccc1C(=O)N1CCOCC1 [Compound 44, N-(3-(5-((3-acrylamide-4-(morpholin-4-carbonyl)phenyl)amino)-1-methyl-6-oxo-1,6-dihydropyridin-3-yl)-2-methylphenyl)-2,3-dihydrobenzo[b][1,4]dioxin-6-carboxamide] | 72 | –
4 | C=CC(=O)Nc1cc(Nc2cc(-c3cccc(NC(=O)c4ccc(C)s4)c3C)cn(C)c2=O)ccc1C(=O)N1CCOCC1 [Compound 71, N-(3-(5-((3-acrylamide-4-(morpholin-4-carbonyl)phenyl)amino)-1-methyl-6-oxo-1,6-dihydropyridin-3-yl)-2-methylphenyl)-5-methylthiophene-2-carboxamide] | 30 | –
5 | C=CC(=O)Nc1cc(Nc2cc(-c3cccc(NC(=O)c4cc5c(s4)CCCC5)c3C)cn(C)c2=O)ccc1C(=O)N1CCCC1 [Compound 69, N-(3-(5-((3-acrylamide-4-(pyrrolidin-1-carbonyl)phenyl)amino)-1-methyl-6-oxo-1,6-dihydropyridin-3-yl)-2-methylphenyl)-4,5,6,7-tetrahydrobenzo[b]thiophene-2-carboxamide] | 83.6 | –
6 | C=CC(=O)Nc1cc(Nc2cc(-c3cccc(NC(=O)c4cc5ccccc5s4)c3C)cn(C)c2=O)ccc1N1CCN(CC)CC1 [Compound 91, N-(3-(5-((3-acrylamide-4-(4-ethylpiperazin-1-yl)phenyl)amino)-1-methyl-6-oxo-1,6-dihydropyridin-3-yl)-2-methylphenyl)benzo[b]thiophene-2-carboxamide] | 156 | –
7 | C=CC(=O)Nc1cc(Nc2cc(-c3cccc(NC(=O)c4cc5c(s4)CCCC5)c3C)cn(C)c2=O)ccc1C(=O)N1CCOCC1 [Compound 65, N-(3-(5-((3-acrylamide-4-(morpholin-4-carbonyl)phenyl)amino)-1-methyl-6-oxo-1,6-dihydropyridin-3-yl)-2-methylphenyl)-4,5,6,7-tetrahydrobenzo[b]thiophene-2-carboxamide] | 25 | –
8 | C=CC(=O)Nc1cc(Nc2cc(-c3cccc(NC(=O)c4cc(C)cs4)c3C)cn(C)c2=O)ccc1C(=O)N1CCOCC1 [Compound 70, N-(3-(5-((3-acrylamide-4-(morpholin-4-carbonyl)phenyl)amino)-1-methyl-6-oxo-1,6-dihydropyridin-3-yl)-2-methylphenyl)-4-methylthiophene-2-carboxamide] | 114 | –
9 | C=CC(=O)Nc1cc(Nc2cc(-c3cccc(NC(=O)c4cc5c(s4)CCCC5)c3C)cn(C)c2=O)ccc1N1CCC(OC)CC1 [Compound 88, N-(3-(5-((3-acrylamide-4-(4-methoxypiperidin-1-yl)phenyl)amino)-1-methyl-6-oxo-1,6-dihydropyridin-3-yl)-2-methylphenyl)-4,5,6,7-tetrahydrobenzo[b]thiophene-2-carboxamide] | 167 | –
10 | Cc1c(NC(=O)c2ccc3c(c2)OCO3)cccc1-c1cc(Nc2ccc(C(=O)N3CCOCC3)c(NC(=O)CCl)c2)c(=O)n(C)c1 [Compound 19, N-(3-(5-((3-chloroacetamide-4-(morpholin-4-carbonyl)phenyl)amino)-1-methyl-6-oxo-1,6-dihydropyridin-3-yl)-2-methylphenyl)-benzo[d][1,3]dioxolanyl-5-carboxamide] | 197 | –
11 | C=CC(=O)Nc1cc(Nc2cc(-c3cccc(NC(=O)c4ccc(N(C)C)cc4)c3C)cn(C)c2=O)ccc1C(=O)N1CCC(O)CC1 [Compound 56, N-(3-(5-((3-acrylamide-4-(4-hydroxypiperdin-1-carbonyl)phenyl)amino)-1-methyl-6-oxo-1,6-dihydropyridin-3-yl)-2-methylphenyl)-4-(dimethylamino)benzoylamide] | 124 | –
12 | C=CC(=O)Nc1cc(Nc2cc(-c3cccc(NC(=O)c4ccc5c(c4)CCCC5)c3C)cn(C)c2=O)ccc1C(=O)N1CCOCC1 [Compound 43, N-(3-(5-((3-acrylamide-4-(morpholin-4-carbonyl)phenyl)amino)-1-methyl-6-oxo-1,6-dihydropyridin-3-yl)-2-methylphenyl)-5,6,7,8-tetrahydronaphthalene-2-carboxamide] | 41 | –
13 | C=CC(=O)Nc1cc(Nc2cc(-c3cccc(NC(=O)c4ccc(C5CC5)cc4)c3C)cn(C)c2=O)ccc1N1CCN(C)CC1 [Compound 72, N-(3-(5-((3-acrylamide-4-(4-methylpiperazin-1-yl)phenyl)amino)-1-methyl-6-oxo-1,6-dihydropyridin-3-yl)-2-methylphenyl)-4-cyclopropylbenzoylamide] | 180 | –
14 | C=CC(=O)Nc1cc(Nc2cc(-c3cccc(NC(=O)c4cc5c(s4)CCCC5)c3C)cn(C)c2=O)ccc1N1CCCC1 [Compound 80, N-(3-(5-((3-acrylamide-4-(pyrrolidin-1-yl)phenyl)amino)-1-methyl-6-oxo-1,6-dihydropyridin-3-yl)-2-methylphenyl)-4,5,6,7-tetrahydrobenzo[b]thiophene-2-carboxamide] | 83 | –
15 | C=CC(=O)Nc1cc(Nc2cc(-c3cccc(NC(=O)c4cc5ccccc5s4)c3C)cn(C)c2=O)ccc1C(=O)N1CCOCC1 [Compound 68, N-(3-(5-((3-acrylamide-4-(morpholin-4-carbonyl)phenyl)amino)-1-methyl-6-oxo-1,6-dihydropyridin-3-yl)-2-methylphenyl)benzo[b]thiophene-2-carboxamide] | 22 | –

Further lines, results first:

Row | IC50 (values in nM) [nM] | IC50 (values given in μM) [nM] | Compound
16 | 339 | – | CCC(=O)Nc1cc(Nc2cc(-c3cccc(NC(=O)c4ccc(C(C)(C)C)cc4)c3C)cn(C)c2=O)ccc1C(=O)N(C)C [Compound 30, 2-propanamide-4-((5-(3-(4-(tert-butyl)benzamide)-2-methylphenyl)-1-methyl-2-oxo-1,2-dihydropyridin-3-yl)amino)-N,N-dimethylbenzoylamide]
17 | 164 | – | C=CC(=O)Nc1cc(Nc2cc(-c3cccc(NC(=O)c4ccc(CC)cc4)c3C)cn(C)c2=O)ccc1C(=O)N1CCOCC1 [Compound 62, N-(3-(5-((3-acrylamide-4-(morpholin-4-carbonyl)phenyl)amino)-1-methyl-6-oxo-1,6-dihydropyridin-3-yl)-2-methylphenyl)-4-ethylbenzoylamide]
18 | 19 | – | C=CC(=O)Nc1cc(Nc2cc(-c3cccc(NC(=O)c4ccc(C(C)(C)C)cc4)c3C)cn(C)c2=O)ccc1C(=O)N1CCCC1 [Compound 31, N-(3-(5-((3-acrylamide-4-(pyrrolidin-1-carbonyl)phenyl)amino)-1-methyl-6-oxo-1,6-dihydropyridin-3-yl)-2-methylphenyl)-4-(tert-butyl)benzamide]
19 | 144 | – | C=CC(=O)Nc1cc(Nc2cc(-c3cccc(NC(=O)c4ccc(C(C)(C)C)cc4)c3C)cn(C)c2=O)ccc1C(=O)N1CCN(C)CC1 [Compound 3, N-(3-(5-((3-acrylamide-4-(4-methylpiperazin-1-carbonyl)phenyl)amino)-1-methyl-6-oxo-1,6-dihydropyridin-3-yl)-2-methylphenyl)-4-(tert-butyl)benzamide]
20 | 45 | – | C=CC(=O)Nc1cc(Nc2cc(-c3cccc(NC(=O)c4ccc(C(C)(C)C)cc4)c3C)cn(C)c2=O)ccc1C(=O)NC1CC1 [Compound 46, 2-acrylamide-4-((5-(3-(4-(tert-butyl)benzamide)-2-methylphenyl)-1-methyl-2-oxo-1,2-dihydropyridin-3-yl)amino)-N-cyclopropylbenzoylamide]
21 | 212 | – | C=CC(=O)Nc1cc(Nc2cc(-c3cccc(NC(=O)c4ccc(C(C)(C)C)cc4)c3C)cn(C)c2=O)ccc1C [Compound 25, N-(3-(5-((3-acrylamide-4-methylphenyl)amino)-1-methyl-6-oxo-1,6-dihydropyridin-3-yl)-2-methylphenyl)-4-(tert-butyl)benzamide]
22 | 24 | – | C=CC(=O)Nc1cc(Nc2cc(-c3cccc(NC(=O)c4ccc(C(C)(C)C)cc4)c3C)cn(C)c2=O)ccc1C(=O)N1CCCC(O)C1 (centres unmarked) [Compound 47, N-(3-(5-((3-acrylamide-4-(3-hydroxypiperidin-1-carbonyl)phenyl)amino)-1-methyl-6-oxo-1,6-dihydropyridin-3-yl)-2-methylphenyl)-4-(tert-butyl)benzamide]
23 | 503 | – | CCC(=O)Nc1cc(Nc2cc(-c3cccc(NC(=O)c4ccc(C(C)(C)C)cc4)c3C)cn(C)c2=O)ccc1C(=O)N1CCN(C(=O)OC(C)(C)C)CC1 [Compound 39, tertbutyl 4-(2-propanamide-4-((5-(3-(4-(tert-butyl)benzamide)-2-methylphenyl)-1-methyl-2-oxo-1,2-dihydropyridin-3-yl)amino)benzoyl)piperazin-1-carboxylate]
